Measurements published in publication PMC9569529, “Safe and Efficient Sigma1 Ligand: A Potential Drug Candidate for Multiple Sclerosis” (International Journal of Molecular Sciences, 2022).

Assays:
[1] = molecular target: T1, S2R (Homo sapiens, UniProt Q5BJF2); assay: S2R binding assay, [3H]-DTG, Jurkat cell membranes
T1 construct: host or cells: Jurkat cell membranes
Experimental: The binding assays were performed by Eurofins Cerep (Poitiers, France) according to Ganapathy. Briefly, S1R)binding assay was carried out by incubating Jurkat cell membranes ([…] protein per tube) with [^3H] (+)-pentazocine (15 nM) and a range of concentrations of test compounds at 37 °C for 2 h in 5 mM Tris HCl buffer (pH = 7.4). The S2R binding assay was performed by incubating Jurkat cell membranes ([…] protein per tube) with [^3H]-DTG (25 nM) in the presence of (+)-pentazocine (1 mM), to saturate S1R, and a range of concentrations of test compounds at room temperature for 1 h in 5 mM Tris HCl buffer (pH = 7.4). Bound radioactivity was measured using liquid scintillation counting. Nonspecific binding was determined in both assays, under similar conditions, as remaining in the presence of […] unlabeled haloperidol. Inhibition constants (Ki) were calculated from the IC50 values according to the method of Cheng and Prusoff.

[2] = tested on: CYP1A2; assay: CYP induction in human hepatocytes (mRNA, qPCR); format: in vitro ADME; details: 10 µM
Experimental: The compound was classically evaluated at 10 µM for all the ADME analyses. Bidirectional permeability (apical A to basolateral B pH 6.5/7.4 and basolateral B to apical A pH 7.4/6.5) was assessed in the epithelial colorectal adenocarcinoma cell line (Caco-2 cell line). Results were expressed as × 10^−6cm/s (Papp) and as % recovery. Efflux ratio, i.e., Papp(B-A)/Papp(A-B), was calculated. Plasma protein binding was analyzed by HPLC-MS/MS after 4-h incubation at 37 °C, as described by Banker et al.. Concentration was evaluated by LC/MS-MS. CYP inhibition was performed in human liver microsomes as described in [61]. Analysis of the respective metabolites. was performed by HPLC-MS/MS. Transporter inhibition analysis was also performed in overexpressing cell lines. Respective metabolites for each specific transporter substrate were analyzed by fluorometry or scintillation counting and % inhibition of control values were calculated. P-glycoprotein transporter substrate assessment was performed by bidirectional permeability analysis (apical A to basolateral B pH 7.4/7.4 and basolateral B to apical A pH 7.4/7.4) in the Caco-2 cell line with and without verapamil, as described in [59]. Results were expressed as ×10^−6 cm/s (Papp) and as % recovery. The efflux ratio, i.e., Papp(B-A)/Papp(A-B), was calculated. CYP450 induction characterization was performed on human hepatocytes. The mRNA levels of 7 different CYPs were analyzed by qPCR, as described in [72]. The compound was evaluated at 1, 10 and 100 µM. Fold-induction values were determined and compared to cut-off values, as defined for each CYP isozyme in each hepatocyte lot.

T1 sequence (Q5BJF2 whole entry): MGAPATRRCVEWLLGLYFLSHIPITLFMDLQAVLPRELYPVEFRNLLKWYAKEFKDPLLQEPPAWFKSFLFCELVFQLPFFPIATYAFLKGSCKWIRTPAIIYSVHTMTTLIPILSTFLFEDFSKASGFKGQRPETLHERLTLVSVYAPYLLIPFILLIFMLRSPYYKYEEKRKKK

Ki [1]	Structure (SMILES)	modulation of CYP1A2 (induction, conclusion) ([2]; three donors)	CYPs induction CYP1A2, donor #1 ([2]; donor #1, cut-off (2))	CYPs induction CYP1A2, donor #2 ([2]; donor #2, cut-off (5))	CYPs induction CYP1A2, donor #3 ([2]; donor #3, cut-off (2))
> 1000 nM	O=C(NCCCNCc1ccccc1)c1ccc(Cl)cc1 [compound 7i-deMe]				
	CN(CCCNC(=O)c1ccc(Cl)cc1)Cc1ccccc1 [compound 7i]	No modulation	2.7%	1.5%	1.9%
